Measured values published in paper PMC6720259, “Phlorotannins with Potential Anti-Tyrosinase and Antioxidant Activity Isolated from the Marine Seaweed Ecklonia stolonifera” (Antioxidants, 2019).
Entries after “also recorded” stand apart in the source; their conditions may differ. Where two headings read alike, the source gives them in different places.

How the values were obtained:
[1] = ONOO− radical scavenging assay; details: mean ± SD of triplicates
Method: ONOO^− scavenging activity was assessed by a modified version of Kooy’s method, which monitors the production of fluorescent rhodamine 123 from non-fluorescent DHR 123 in the presence of ONOO^−. L-Penicillamine was used as a positive control.

[2] = ABTS•+ radical scavenging assay; details: mean ± SD of triplicates
From the text: This assay assesses the ability of different substances to scavenge ABTS radical cations (ABTS^•+) in comparison with the positive control, Trolox. The method was developed by Re et al. 1999 [21].

[3] = DPPH radical scavenging activity; details: mean ± SD of triplicates
Method: DPPH radical scavenging activity was evaluated by the method described by Blois, 1958 [19] with slight modifications. L-Ascorbic acid was used as a positive control.

B16F10 melanoma cells [4] = assay: Cell viability (MTT) assay; assay type: cell-based, mouse; details: 6.25, 12.5, 25, 50, and 100 μM, with or without α-MSH co-treatment
Method: B16F10 mouse melanoma cells were obtained from the American Type Culture Collection (Manassas, VA, USA). Cells were cultured at 37 °C in high-glucose DMEM supplemented with 10% FBS, 100 U/mL penicillin, and 100 μg/mL streptomycin in a humidified atmosphere containing 5% CO2. The MTT assay was used to determine the cytotoxicity of 974-A, phlorofucofuroeckol-A, and eckol according to previously described methods with slight modifications. Briefly, B16F10 cells were seeded in a 96-well plate at 1 × 10^4 cells/well and incubated for 24 h in DMEM supplemented with 10% FBS. […] After 24-h incubation of the samples, the FBS-free DMEM was suctioned, and the cells were treated with an MTT solution (100 μL at 0.5 mg/mL in phosphate-buffered saline (PBS)) and incubated for 2 h. The proportion of surviving cells was determined after the medium was replaced with 100 µL of DMSO. […] The absorbance was measured at 570 nm on a microplate reader (Molecular Devices, Sunnyvale, CA, USA).

[5] = tested on: cellular melanin and tyrosinase; parameters: method as in earlier work; details: previous study; cited from earlier work
mushroom tyrosinase [6] = biological target: T1, mushroom tyrosinase (Agaricus bisporus, UniProt C7FF04); assay: Kinetic analysis of mushroom tyrosinase inhibition (Lineweaver-Burk and Dixon plots); assay type: biochemical; details: for Ki: Dixon plot; for Type of inhibition, L-DOPA / Type of inhibition, L-Tyrosine: Lineweaver-Burk plot
T1 construct: purchased Sigma Aldrich
Method: The inhibition mode and inhibition constant (Ki) for mushroom tyrosinase inhibition were calculated from the Lineweaver-Burk and Dixon plots. Kinetic parameters were obtained for various concentrations of the substrates (L-tyrosine and L-DOPA) and inhibitors (974-A, phlorofucofuroeckol-A and eckol). Graphs were generated with Sigma plot 12.0 (SPSS Inc., Chicago, IL, USA).

B16F10 melanoma cells [7] = assay: Melanin content assay in α-MSH-stimulated cells; assay type: cell-based, mouse; details: for Melanin content of α-MSH-stimulated B16F10 cells: 6.25-100 μM, α-MSH 3 μM, 24 h; for Inhibition of melanin content compared with arbutin (500 μM): compound at 100 μM, α-MSH-stimulated B16F10 cells
Method: The intracellular melanin content was determined according to a procedure described previously with minor modifications. Briefly, B16F10 cells were seeded in a 24-well plate at 1 × 10^4 cells/well and incubated for 24 h in DMEM containing 10% FBS. Cells were pretreated with various concentrations of 974-A, phlorofucofuroeckol-A, and eckol for 1 h, and then were stimulated with α-MSH (3 μM) for 24 h. The cells were washed with PBS, and were dissolved in 1 N NaOH containing 10% DMSO by being boiled at 80 °C for 30 min. The cell lysates were centrifuged at 14,000 rpm for 10 min, and the absorbance of the supernatant was measured at 405 nm on a microplate reader (Molecular Devices). The absorbance was normalized to the total protein content for the determination of the melanin content.

mushroom tyrosinase [8] = biological target: T1, mushroom tyrosinase; assay: In vitro mushroom tyrosinase inhibitory assay (L-tyrosine and L-DOPA as substrates); assay type: biochemical; details: for IC50: mean ± SD of triplicates
Method: Mushroom tyrosinase inhibitory activity was assessed by the method described by Kang et al. 2004 [17] with slight modifications.

[9] = tested on: cellular tyrosinase of B16F10 cells; assay: Cellular TYR activity assay (L-DOPA oxidase activity); assay type: cell-based, mouse; details: for Cellular tyrosinase activity of α-MSH-stimulated B16F10 cells: 6.25-100 μM, α-MSH 3 μM, 24 h; for Inhibition of cellular tyrosinase compared with arbutin (500 μM): compound at 100 μM, α-MSH-stimulated B16F10 cells
Method: Cellular TYR activity was measured as L-DOPA oxidase activity by a previously described method with some modifications. Cells were seeded at 1 × 10^4 cells/well in a 24-well plate, incubated for 24 h and then stimulated with α-MSH (3 μM) in the presence or absence of 974-A, phlorofucofuroeckol-A, or eckol for 24 h. After treatment, the cells were washed with cold PBS and lysed with RIPA buffer. The cell lysates were centrifuged at 12,000 rpm for 10 min, and the supernatant was used as the cellular TYR solution. The reaction mixture, which contained 80 μL of the cell lysate and 20 μL of L-DOPA (20 mM), was incubated at 37 °C for 45 min. After the incubation, dopachrome formation was measured spectrophotometrically every 10 min for 45 min at 450 nm on a microplate reader (Molecular Devices). TYR activity was calculated as a percentage of the control.

[10] = tested on: tyrosinase, TRP-1, and TRP-2 expression in B16F10 cells; assay: Western blot analysis of melanogenic enzymes; assay type: cell-based, mouse; details: 12.5–50 μM, α-MSH-stimulated B16F10 cells
Method: B16F10 cells were stimulated with α-MSH in the presence or absence of compounds for the indicated times. The cells were then washed with ice-cold PBS and lysed with RIPA buffer on ice for 30 min. After centrifugation of the samples at 12,000× g for 20 min, the protein concentrations of the supernatants were determined. Aliquots of protein were resolved by sodium dodecyl sulfate-polyacrylamide gel electrophoresis (SDS-PAGE) and transferred onto a nitrocellulose membrane. The membrane was washed with Tris-buffered saline (TBS; 10 mM Tris-HCl, 150 mM NaCl, pH 7.5) supplemented with 0.05% Tween 20 (TBST), blocked with 5% skim milk (w/v) in TBST for 2 h and incubated for approximately 20 h with the primary antibodies. The immunoblots were then incubated with the appropriate secondary antibody coupled to horseradish peroxidase for 2 h, and protein levels were detected with an ECL detection kit. Densitometric analysis of data from at least three independent experiments was performed with a cooled CCD camera system and CS analyzer version 3.00 software. Fold-increases in protein expression were calculated versus normal controls. The experiments were repeated three times for each experimental condition.

melanin synthesis = tested on: melanin synthesis; parameters: method as in PMID 19490939; details: at 250 μM; cited from earlier work
IBMX-treated cells = tested on: IBMX-treated cells; parameters: method as in PMID 19361156; details: cited from earlier work
tyrosinase = tested on: tyrosinase; parameters: method as in PMID 19490939; details: at 50 μM; cited from earlier work
[11] = substrate L-DOPA, read-out: Ki Value, L-DOPA
[12] = substrate L-tyrosine, read-out: Ki Value, L-Tyrosine
[13] = IC50 Value, Mushroom Tyrosinase Inhibition, L-DOPA, substrate L-DOPA
[14] = IC50 Value, Mushroom Tyrosinase Inhibition, L-Tyrosine, substrate L-tyrosine
[15] = substrate L-DOPA, read-out: IC50 Value, Mushroom Tyrosinase Inhibition, L-DOPA
[16] = substrate L-tyrosine, read-out: IC50 Value, Mushroom Tyrosinase Inhibition, L-Tyrosine

T1 sequence (C7FF04 1-392 limits assumed): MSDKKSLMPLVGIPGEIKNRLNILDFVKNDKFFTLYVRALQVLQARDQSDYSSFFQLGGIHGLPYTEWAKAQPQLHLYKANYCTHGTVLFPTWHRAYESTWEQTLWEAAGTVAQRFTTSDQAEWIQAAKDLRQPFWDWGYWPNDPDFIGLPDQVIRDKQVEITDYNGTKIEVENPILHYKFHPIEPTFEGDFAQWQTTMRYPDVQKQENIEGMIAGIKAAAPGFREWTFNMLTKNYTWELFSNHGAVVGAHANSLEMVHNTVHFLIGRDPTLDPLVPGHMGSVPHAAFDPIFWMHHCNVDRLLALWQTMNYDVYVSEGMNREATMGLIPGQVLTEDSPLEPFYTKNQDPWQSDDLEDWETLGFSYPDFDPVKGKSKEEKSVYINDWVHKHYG

Compound | IC50 [1] | IC50 [2] | IC50 [3] | Cytotoxicity towards B16F10 melanoma cells (MTT) (B16F10 melanoma cells [4]) | Type of inhibition, L-DOPA (mushroom tyrosinase [6]; substrate L-DOPA) | Type of inhibition, L-Tyrosine (mushroom tyrosinase [6]; substrate L-tyrosine) | Melanin content of α-MSH-stimulated B16F10 cells (B16F10 melanoma cells [7]) | Inhibition of melanin content compared with arbutin (500 μM) (B16F10 melanoma cells [7]) | Cellular tyrosinase activity of α-MSH-stimulated B16F10 cells [9] | Inhibition of cellular tyrosinase compared with arbutin (500 μM) [9] | Expression of tyrosinase, TRP-1, and TRP-2 (Western blot) [10] | other results
CC(C)(S)C(N)C(=O)O (stereo in doubt) [Penicillamine, L-penicillamine, reference compound] | 1.07 ± 0.21 µM | – | – | – | – | – | – | – | – | – | – | –
Cc1c(C)c2c(c(C)c1O)CCC(C)(C(=O)O)O2 (centres unmarked) [Trolox, reference compound] | – | 18.4 ± 0.7 µM | – | – | – | – | – | – | – | – | – | –
O=C1O[C@H]([C@@H](O)CO)C(O)=C1O [Ascorbic acid, L-ascorbic acid, reference compound] | – | – | 0.69 ± 0.04 µM | – | – | – | – | – | – | – | – | –
Oc1cc(O)cc(Oc2c(O)cc(O)c3c2Oc2c(O)cc(O)cc2O3)c1 [Eckol, eckol] | 0.73 ± 0.07 µM | 5.01 ± 0.19 µM | 1.63 ± 0.65 µM | none of them exhibited significant cytotoxicity up to 100 μM | Non-competitive | Non-competitive | reduced the cellular melanin content | more effective than arbutin | reduced the cellular melanin content and tyrosinase activity | as active | downregulated the expression of melanogenesis enzymes; also recorded: dose-dependently attenuated the expression of TYR, TRP-1, and TRP-2 | Melanin levels and tyrosinase at a cellular level [5]: dose-dependently reduce melanin levels and inhibit tyrosinase at a cellular level; Ki (mushroom tyrosinase [6]; [11]): 28.5 µM; Type of inhibition, L-DOPA (mushroom tyrosinase [6]; substrate L-DOPA, listed as eckol): non-competitive; Ki (mushroom tyrosinase [6]; [12]): 8.6 µM; Type of inhibition, L-Tyrosine (mushroom tyrosinase [6]; substrate L-tyrosine, listed as eckol): non-competitive; IC50 (mushroom tyrosinase [8]; [13]): 29.6 ± 0.48 µM; IC50 (mushroom tyrosinase [8]; [14]): 9.12 ± 0.36 µM
CC1=C(/C=C/C(C)=C/C=C/C(C)=C/CO)C(C)(C)CCC1 [retinol] | – | – | – | – | – | – | – | – | – | – | – | Inhibition of melanin synthesis (melanin synthesis): 75.3%
Oc1cc(O)cc(O)c1 [Phloroglucinol, phloroglucinol] | 1.72 ± 0.59 µM | 31.5 ± 1.68 µM | > 100 µM | – | – | – | – | – | – | – | – | Inhibition of mushroom tyrosinase, either substrate (in words) (mushroom tyrosinase [8]; L-tyrosine and L-DOPA): No significant inhibition; IC50 (mushroom tyrosinase [8]; [15]): > 400 µM; IC50 (mushroom tyrosinase [8]; [16]): 251 ± 5.52 µM
Oc1cc(O)cc(Oc2c(O)cc(O)c3c2Oc2c(O)cc4oc5c(Oc6cc(O)cc(O)c6)c(O)cc(O)c5c4c2O3)c1 [Phlorofucofuroeckol-A, phlorofucofuroeckol-A] | 0.85 ± 0.1 µM | 12.9 ± 0.95 µM | 1.92 ± 0.09 µM | none of them exhibited significant cytotoxicity up to 100 μM | Non-competitive | Non-competitive | reduced the cellular melanin content | comparable to arbutin | reduced the cellular melanin content and tyrosinase activity | more potent | downregulated the expression of melanogenesis enzymes; also recorded: dose-dependently attenuated the expression of TYR, TRP-1, and TRP-2 | Ki (mushroom tyrosinase [6]; Ki Value, L-DOPA, substrate L-DOPA): 7.14 µM; Ki (mushroom tyrosinase [6]; Ki Value, L-Tyrosine, substrate L-tyrosine): 2.7 µM; Type of inhibition, L-DOPA (mushroom tyrosinase [6]; substrate L-DOPA, listed as phlorofucofuroeckol-A): non-competitive; Type of inhibition, L-Tyrosine (mushroom tyrosinase [6]; substrate L-tyrosine, listed as phlorofucofuroeckol-A): non-competitive; IC50 (mushroom tyrosinase [8]; [13]): 8.14 ± 0.29 µM; IC50 (mushroom tyrosinase [8]; [14]): 3.42 ± 0.01 µM
7-phloreckol [Compound 7-phloreckol] | – | – | – | – | – | – | – | – | – | – | – | Melanin content of IBMX-treated cells (IBMX-treated cells): significantly and dose-dependently reduced the melanin content
Oc1cc(O)cc(Oc2c(O)cc(O)c3c2Oc2c(O)cc(Oc4c(O)cc(Oc5c(O)cc(O)c6c5Oc5c(O)cc(O)cc5O6)cc4O)cc2O3)c1 [Dieckol] | – | – | – | – | – | – | – | – | – | – | – | Tyrosinase inhibitory activity (tyrosinase): 88.9%
Oc1cc(O)cc(Oc2c(O)cc(O)c3c2oc2cc(O)c4c(c23)Oc2c(O)cc(O)c(Oc3cc(O)cc(O)c3-c3c(O)cc(O)cc3Oc3c(O)cc(O)cc3Oc3c(O)cc(O)cc3O)c2O4)c1 [Compound 974-A, 974-A] | 0.26 ± 0.06 µM | 6.29 ± 0.34 µM | 0.92 ± 0.11 µM | none of them exhibited significant cytotoxicity up to 100 μM | Competitive | Competitive | reduced the cellular melanin content | comparable to arbutin | reduced the cellular melanin content and tyrosinase activity | as active | downregulated the expression of melanogenesis enzymes; also recorded: dose-dependently attenuated the expression of tyrosinase, TRP-1, and TRP-2 | Ki (mushroom tyrosinase [6]; [11]): 3.33 µM; Ki (mushroom tyrosinase [6]; [12]): 0.69 µM; IC50 (mushroom tyrosinase [8]; [15]): 3.56 ± 0.22 µM; IC50 (mushroom tyrosinase [8]; [16]): 1.57 ± 0.08 µM
